Results as given in US20020035100A1, “Alkyl ether modified polycyclic compounds having a terminal phenol and uses for protection of cells” (priority 2000, published 2002).
Entries after “also recorded” stand apart in the source; their conditions may differ.

Legend:
[1] = system: HT-22 cells; assay: Cytoprotection of HT-22 cells against glutamate exposure (calcein AM cell viability); assay type: cell-based, Mouse; details: for activity compared with 4c and 4e: at 10 μM; for cytoprotection (result in words): tested at 0.01-10 μM; for neuroprotection: at 10 μM and 1 μM
Procedure: Mouse clonal hippocampal HT-22 cells were cultured in DMEM media supplemented with 10% fetal bovine serum under standard cell culture conditions. All wells in the 96 well culture plate contained approximately 5,000 HT-22 cells as determined by a Neubauer hemacytometer and the cells were incubated for 24 hrs before the compounds were added. The estradiol derivatives were purified recrystallization or column chromatography and were free from (1) as determined by HPLC. All agents were dissolved in absolute ethanol and diluted, with the culture media, to a final concentration of 0.01 μM; 0.1 μM; 1.0 μM; and 10 μM in their respective wells. The cells were further incubated for 24 hrs before sodium glutamate in a solution of phosphate buffer was added. Cell viability was quantified 2 hrs later by the calcein AM assay (Green, P. S., E. J.Perez, T. Calloway and J. W. Simpkins: (2000), Journal of Neurocytology, Vol. 29, pp. 419-423) in a phosphate buffer solution.
ANOVA was used to determine the significance of differences among groups. Comparison between groups were done using the Tukey test. Ap<0.05 was considered significant.

[2] = target: T1, ERα (Homo sapiens, UniProt P03372); assay: Estrogen receptor binding, displacement of radiolabeled 17β-estradiol; design: dose or concentration left out as unconfirmed; details: human cloned ERα, 17β-estradiol assigned 1; <0.01 = no evidence of binding
T1 sequence (P03372 1-595): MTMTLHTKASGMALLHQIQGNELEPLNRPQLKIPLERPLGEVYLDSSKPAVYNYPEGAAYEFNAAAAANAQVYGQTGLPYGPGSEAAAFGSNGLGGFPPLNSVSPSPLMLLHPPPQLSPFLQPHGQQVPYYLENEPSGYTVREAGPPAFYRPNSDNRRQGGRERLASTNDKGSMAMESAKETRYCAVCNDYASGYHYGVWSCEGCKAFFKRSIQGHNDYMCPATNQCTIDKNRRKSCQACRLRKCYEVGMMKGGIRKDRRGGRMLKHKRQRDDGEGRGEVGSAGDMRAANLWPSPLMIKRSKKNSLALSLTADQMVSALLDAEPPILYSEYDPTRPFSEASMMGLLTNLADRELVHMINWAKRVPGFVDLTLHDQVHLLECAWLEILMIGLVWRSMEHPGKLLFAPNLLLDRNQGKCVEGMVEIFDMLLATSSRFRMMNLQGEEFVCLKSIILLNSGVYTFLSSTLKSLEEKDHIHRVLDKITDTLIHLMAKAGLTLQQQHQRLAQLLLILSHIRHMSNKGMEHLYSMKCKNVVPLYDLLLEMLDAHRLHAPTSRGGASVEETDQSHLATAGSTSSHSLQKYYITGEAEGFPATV

[3] = target: ERβ (Homo sapiens, UniProt Q92731); assay: Estrogen receptor binding, displacement of radiolabeled 17β-estradiol; design: dose or concentration left out as unconfirmed; details: human cloned ERβ, 17β-estradiol assigned 1; <0.01 = no evidence of binding
Chain of ERβ (Q92731 whole entry): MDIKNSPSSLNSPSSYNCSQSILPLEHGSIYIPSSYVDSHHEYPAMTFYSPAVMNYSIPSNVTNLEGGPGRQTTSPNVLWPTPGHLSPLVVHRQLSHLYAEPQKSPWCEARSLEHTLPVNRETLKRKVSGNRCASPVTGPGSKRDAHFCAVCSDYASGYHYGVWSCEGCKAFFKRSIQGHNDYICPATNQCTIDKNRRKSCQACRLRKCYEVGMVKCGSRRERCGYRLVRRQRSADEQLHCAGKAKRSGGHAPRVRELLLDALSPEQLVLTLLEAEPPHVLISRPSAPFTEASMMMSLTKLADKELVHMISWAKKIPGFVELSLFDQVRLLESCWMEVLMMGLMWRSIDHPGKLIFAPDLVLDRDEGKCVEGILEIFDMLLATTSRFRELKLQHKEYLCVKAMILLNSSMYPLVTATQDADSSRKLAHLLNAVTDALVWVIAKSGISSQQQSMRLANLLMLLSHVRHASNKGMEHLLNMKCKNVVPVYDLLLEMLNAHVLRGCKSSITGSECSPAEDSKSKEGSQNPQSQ

SMILES | cytoprotection (result in words) [1] | ERα BINDING (Relative to E2) [2] | melting point | also measured
C[C@]12CC[C@@H]3c4ccc(O)cc4CC[C@H]3[C@@H]1CC[C@@H]2O [Compound 1, 17β-estradiol, reference compound] | effective only at 10 μM | – | – | activity compared with 4c and 4e [1]: less active then 4c and 4e
CO[C@H]1CC[C@H]2[C@@H]3CCc4cc(O)ccc4[C@H]3CC[C@]12C [Compound 4a, 17β-Methoxyestra-1,3,5(10)-trien-3-ol] | inactive; also recorded: ineffective even at 10 μM | – | – | activity compared with 4c and 4e [1]: less active then 4c and 4e; cytoprotection (result in words) ([1]; listed as 17β-methylestradiol): effective only at 10 μM
CCO[C@H]1CC[C@H]2[C@@H]3CCc4cc(O)ccc4[C@H]3CC[C@]12C [Compound 4b, 17β-Ethoxyestra-1,3,5(10)-trien-3-ol] | – | <0.01 | – | –
CCCO[C@H]1CC[C@H]2[C@@H]3CCc4cc(O)ccc4[C@H]3CC[C@]12C [Compound 4c, 17β-Propoxyestra-1,3,5(10)-trien-3-ol] | – | <0.01 | – | –
CCCCO[C@H]1CC[C@H]2[C@@H]3CCc4cc(O)ccc4[C@H]3CC[C@]12C [Compound 4d, 17β-Butoxyestra-1,3,5(10)-trien-3-ol] | – | – | 77 to 81 °C | –
CCCCCCO[C@H]1CC[C@H]2[C@@H]3CCc4cc(O)ccc4[C@H]3CC[C@]12C [Compound 4e, 17β-Hexyloxyestra-1,3,5(10)-trien-3-ol] | active | – | – | neuroprotection [1]: neuroprotective to a similar extent
CCCCCCCCO[C@H]1CC[C@H]2[C@@H]3CCc4cc(O)ccc4[C@H]3CC[C@]12C [Compound 4f, 17β-Octyloxyestra-1,3,5(10)-trien-3-ol] | – | <0.01 | – | neuroprotection [1]: neuroprotective to a similar extent; ERβ BINDING (Relative to E2) [3]: <0.01
CCCCOc1ccc2c(c1)CC[C@@H]1[C@@H]2CC[C@]2(C)[C@@H](O)CC[C@@H]12 [Compound 5b, 3-Butoxyestra-1,3,5(10)-trien-17β-ol] | ineffective | – | 86 to 88 °C | –
CCCCCCCCOc1ccc2c(c1)CC[C@@H]1[C@@H]2CC[C@]2(C)[C@@H](O)CC[C@@H]12 [Compound 5c, 3-Octyloxyestra-1,3,5(10)-trien-17β-ol] | ineffective | – | 64 to 66 °C | –
